These results are taken from paper PMC5218480 (PLoS ONE, 2017).

The experiment deals with MV-4-11 cells. The experiment in a line: Gene expression microarray analysis (Affymetrix PrimeView) and GSEA. In kind it is cell-based, human. Details: RFU PODN (11730768_x_at) / Fold change /veh PODN (11730768_x_at) / RFU LINC00158 (11744669_a_at) / Fold change /veh LINC00158 (11744669_a_at) / RFU DUSP10 (11751237_a_at) / Fold change /veh DUSP10 (11751237_a_at) / RFU ID3 (11757404_x_at) / Fold change /veh ID3 (11757404_x_at) / RFU PLEKHG5 (11737974_s_at) / Fold change /veh PLEKHG5 (11737974_s_at) / RFU LRRC4B (11730491_at) / Fold change /veh LRRC4B (11730491_at) / RFU GIMAP4 (11747438_a_at) / Fold change /veh GIMAP4 (11747438_a_at) / RFU KRT8 (11758183_x_at) / Fold change /veh KRT8 (11758183_x_at) / RFU CNN1 (11734310_a_at) / Fold change /veh CNN1 (11734310_a_at) / RFU VPS37D (11726825_at) / Fold change /veh VPS37D (11726825_at) / RFU C10orf10 (11716522_x_at) / Fold change /veh C10orf10 (11716522_x_at) / RFU KIR2DL2 /// KIR2DL4 /// KIR2DL5A /// KIR2DL5B /// KIR2DS1 /// KIR2DS2 /// KIR2DS3 /// KIR2DS4 /// KIR3DL3 /// KIR3DL3 /// KIR3DS1 (11738374_at) / Fold change /veh KIR2DL2 /// KIR2DL4 /// KIR2DL5A /// KIR2DL5B /// KIR2DS1 /// KIR2DS2 /// KIR2DS3 /// KIR2DS4 /// KIR3DL3 /// KIR3DL3 /// KIR3DS1 (11738374_at) / RFU C1QL1 (11718748_at) / Fold change /veh C1QL1 (11718748_at) / RFU TMPRSS4 (11747572_a_at) / Fold change /veh TMPRSS4 (11747572_a_at) / RFU HAMP (11756126_x_at) / Fold change /veh HAMP (11756126_x_at) / RFU RNFT2 (11725882_a_at) / Fold change /veh RNFT2 (11725882_a_at) / RFU NR4A2 (11747474_a_at) / Fold change /veh NR4A2 (11747474_a_at) / RFU ABCC12 (11746883_a_at) / Fold change /veh ABCC12 (11746883_a_at) / RFU TMEM136 (11760407_x_at) / Fold change /veh TMEM136 (11760407_x_at) / RFU CLDN22 /// WWC2 (11732394_at) / Fold change /veh CLDN22 /// WWC2 (11732394_at) / RFU HLA-DPB1 (11760878_x_at) / Fold change /veh HLA-DPB1 (11760878_x_at) / RFU SPINT1 (11716480_a_at) / Fold change /veh SPINT1 (11716480_a_at) / RFU GAP43 (11754022_s_at) / Fold change /veh GAP43 (11754022_s_at) / RFU A4GNT (11735810_at) / Fold change /veh A4GNT (11735810_at) / RFU PRB3 (11715151_x_at) / Fold change /veh PRB3 (11715151_x_at) / RFU TUBB4B (11761932_at) / Fold change /veh TUBB4B (11761932_at) / RFU CAPN14 (11732068_a_at) / Fold change /veh CAPN14 (11732068_a_at) / RFU TMCC2 (11721928_a_at) / Fold change /veh TMCC2 (11721928_a_at) / RFU IRGQ (11745062_a_at) / Fold change /veh IRGQ (11745062_a_at) / RFU FAM174B (11720279_a_at) / Fold change /veh FAM174B (11720279_a_at) / RFU TMPRSS4 (11748680_a_at) / Fold change /veh TMPRSS4 (11748680_a_at) / RFU FAM212B (11763350_a_at) / Fold change /veh FAM212B (11763350_a_at) / RFU PLEKHG5 (11743358_a_at) / Fold change /veh PLEKHG5 (11743358_a_at) / RFU ZSCAN30 (11745921_a_at) / Fold change /veh ZSCAN30 (11745921_a_at) / RFU CMKLR1 (11741424_a_at) / Fold change /veh CMKLR1 (11741424_a_at) / RFU LOC101060620 /// MAPK8IP1 (11723275_at) / Fold change /veh LOC101060620 /// MAPK8IP1 (11723275_at) / RFU SPTSSB (11747773_x_at) / Fold change /veh SPTSSB (11747773_x_at) / RFU PRSS12 (11739890_at) / Fold change /veh PRSS12 (11739890_at) / RFU BIN1 (11741810_x_at) / Fold change /veh BIN1 (11741810_x_at) / RFU WNT11 (11732464_a_at) / Fold change /veh WNT11 (11732464_a_at) / RFU C10orf10 (11716521_a_at) / Fold change /veh C10orf10 (11716521_a_at) / RFU C5orf56 (11738089_at) / Fold change /veh C5orf56 (11738089_at) / RFU CYB561 (11721691_x_at) / Fold change /veh CYB561 (11721691_x_at) / RFU ANKRD19P (11752326_a_at) / Fold change /veh ANKRD19P (11752326_a_at) / RFU OR2T12 /// OR2T33 /// OR2T8 (11738714_s_at) / Fold change /veh OR2T12 /// OR2T33 /// OR2T8 (11738714_s_at) / RFU VCAN (11748164_a_at) / Fold change /veh VCAN (11748164_a_at) / RFU JSRP1 (11732532_at) / Fold change /veh JSRP1 (11732532_at) / RFU KRTAP10-11 (11738290_x_at) / Fold change /veh KRTAP10-11 (11738290_x_at) / RFU MYO3A (11730013_a_at) / Fold change /veh MYO3A (11730013_a_at) / RFU EBF3 (11725865_a_at) / Fold change /veh EBF3 (11725865_a_at) / RFU CAMK2N1 (11719241_x_at) / Fold change /veh CAMK2N1 (11719241_x_at) / RFU C5orf56 (11738088_a_at) / Fold change /veh C5orf56 (11738088_a_at) / RFU OLFML3 (11715873_a_at) / Fold change /veh OLFML3 (11715873_a_at) / RFU LOC100653217 /// NTM (11731650_a_at) / Fold change /veh LOC100653217 /// NTM (11731650_a_at) / RFU MAPK11 (11762145_a_at) / Fold change /veh MAPK11 (11762145_a_at) / RFU FIZ1 (11724087_x_at) / Fold change /veh FIZ1 (11724087_x_at) / RFU OASL (11726364_x_at) / Fold change /veh OASL (11726364_x_at) / RFU SOX15 (11748057_x_at) / Fold change /veh SOX15 (11748057_x_at) / RFU CD79A (11719716_a_at) / Fold change /veh CD79A (11719716_a_at) / RFU HIST1H1D (11736915_at) / Fold change /veh HIST1H1D (11736915_at) / RFU CASKIN2 (11723855_a_at) / Fold change /veh CASKIN2 (11723855_a_at) / RFU LOC730098 (11760151_x_at) / Fold change /veh LOC730098 (11760151_x_at) / RFU OR4N2 (11742367_at) / Fold change /veh OR4N2 (11742367_at) / RFU PRRT2 (11749266_a_at) / Fold change /veh PRRT2 (11749266_a_at) / RFU SNX32 (11753110_a_at) / Fold change /veh SNX32 (11753110_a_at) / RFU CDHR5 (11726645_a_at) / Fold change /veh CDHR5 (11726645_a_at) / RFU RCAN1 (11760418_a_at) / Fold change /veh RCAN1 (11760418_a_at) / RFU FAM167A (11723789_a_at) / Fold change /veh FAM167A (11723789_a_at) / RFU FAM26E (11764081_at) / Fold change /veh FAM26E (11764081_at) / RFU ISYNA1 (11749810_s_at) / Fold change /veh ISYNA1 (11749810_s_at) / RFU ACY1 (11761880_at) / Fold change /veh ACY1 (11761880_at) / RFU 11764098_at / Fold change /veh 11764098_at / RFU SAMD14 (11745864_x_at) / Fold change /veh SAMD14 (11745864_x_at) / RFU NPB (11741838_a_at) / Fold change /veh NPB (11741838_a_at) / RFU TMPRSS6 (11731388_a_at) / Fold change /veh TMPRSS6 (11731388_a_at) / RFU KRTAP10-2 (11738614_at) / Fold change /veh KRTAP10-2 (11738614_at) / RFU ARHGAP8 /// PRR5-ARHGAP8 (11727945_x_at) / Fold change /veh ARHGAP8 /// PRR5-ARHGAP8 (11727945_x_at) / RFU KRTAP5-7 /// NADSYN1 (11734609_at) / Fold change /veh KRTAP5-7 /// NADSYN1 (11734609_at) / RFU RASL12 (11751679_a_at) / Fold change /veh RASL12 (11751679_a_at) / RFU CDKN2B (11736163_a_at) / Fold change /veh CDKN2B (11736163_a_at) / RFU PRF1 (11729649_at) / Fold change /veh PRF1 (11729649_at) / RFU, ZNF638 /// ZNF638-IT1 / Fold change vs veh, ZNF638 /// ZNF638-IT1 / RFU, PANK3 / Fold change vs veh, PANK3 / RFU, SH3YL1 / Fold change vs veh, SH3YL1 / RFU, ZEB2 / Fold change vs veh, ZEB2 / RFU, NRIP1 / Fold change vs veh, NRIP1 / RFU, PTTG1IP / Fold change vs veh, PTTG1IP / RFU, CAPN2 / Fold change vs veh, CAPN2 / RFU, MED14 / Fold change vs veh, MED14 / RFU, SNORA58 / Fold change vs veh, SNORA58 / RFU, C1orf63 / Fold change vs veh, C1orf63 / RFU, LRRFIP1 / Fold change vs veh, LRRFIP1 / RFU, NDUFAF7 / Fold change vs veh, NDUFAF7 / RFU, SLC12A2 / Fold change vs veh, SLC12A2 / RFU, IBTK / Fold change vs veh, IBTK / RFU, ESF1 / Fold change vs veh, ESF1 / Fold change vs veh, TMEM50B / RFU, TAOK1 / Fold change vs veh, TAOK1 / RFU, ACBD3 / Fold change vs veh, ACBD3 / RFU, TMA16 / Fold change vs veh, TMA16 / RFU, RWDD3 / Fold change vs veh, RWDD3 / RFU, BCAT1 / Fold change vs veh, BCAT1 / RFU, EDEM3 / Fold change vs veh, EDEM3 / RFU, TMEM33 / Fold change vs veh, TMEM33 / RFU, WDR75 / Fold change vs veh, WDR75 / RFU, AHCTF1 / Fold change vs veh, AHCTF1 / RFU, TFRC / Fold change vs veh, TFRC / RFU, ZDHHC17 / Fold change vs veh, ZDHHC17 / RFU, NOM1 / Fold change vs veh, NOM1 / RFU, ARL8B / Fold change vs veh, ARL8B / RFU, ZBTB11 / Fold change vs veh, ZBTB11 / RFU, TAMM41 / Fold change vs veh, TAMM41 / RFU, KIAA1704 /// LOC100996395 / Fold change vs veh, KIAA1704 /// LOC100996395 / RFU, ING1 / Fold change vs veh, ING1 / RFU, TRMT61B / Fold change vs veh, TRMT61B / RFU, FUBP3 / Fold change vs veh, FUBP3 / RFU, TP53 / Fold change vs veh, TP53 / RFU, TNKS2 / Fold change vs veh, TNKS2 / RFU, ZFP14 / Fold change vs veh, ZFP14 / RFU, ACTR2 / Fold change vs veh, ACTR2 / RFU, PPP3R1 / Fold change vs veh, PPP3R1 / RFU, PIK3R1 / Fold change vs veh, PIK3R1 / RFU, HNRNPA1 / Fold change vs veh, HNRNPA1 / RFU, RNF170 / Fold change vs veh, RNF170 / RFU, ZNF28 / Fold change vs veh, ZNF28 / RFU, RNGTT / Fold change vs veh, RNGTT / RFU, OGT / Fold change vs veh, OGT / RFU, BRD1 / Fold change vs veh, BRD1 / RFU, MARS / Fold change vs veh, MARS / RFU, ZNF655 / Fold change vs veh, ZNF655 / RFU, FAHD1 / Fold change vs veh, FAHD1 / RFU, BDP1 / Fold change vs veh, BDP1 / RFU, LRRCC1 / Fold change vs veh, LRRCC1 / RFU, ARID1A / Fold change vs veh, ARID1A / RFU, ZNF146 / Fold change vs veh, ZNF146 / RFU, ZNF330 / Fold change vs veh, ZNF330 / RFU, GPN3 / Fold change vs veh, GPN3 / RFU, C9orf123 / Fold change vs veh, C9orf123 / RFU, N4BP2L2 / Fold change vs veh, N4BP2L2 / RFU, ARFIP1 / Fold change vs veh, ARFIP1 / RFU, FAM179B / Fold change vs veh, FAM179B / RFU, BCL10 / Fold change vs veh, BCL10 / RFU, UHRF1BP1L / Fold change vs veh, UHRF1BP1L / RFU, BET1 / Fold change vs veh, BET1 / RFU, CNOT2 / Fold change vs veh, CNOT2 / RFU, ZNF268 / Fold change vs veh, ZNF268 / Fold change vs veh, ZNF507 / RFU, DGCR2 / Fold change vs veh, DGCR2 / RFU, WDSUB1 / Fold change vs veh, WDSUB1 / Fold change vs veh, HSP90B1 /// MIR3652 / RFU, ADSS / Fold change vs veh, ADSS / RFU, GK / Fold change vs veh, GK / RFU, ZNF148 / Fold change vs veh, ZNF148 / RFU, TAF9 / Fold change vs veh, TAF9 / RFU, SLC1A5 / Fold change vs veh, SLC1A5 / RFU, SLMO2 / Fold change vs veh, SLMO2 / RFU, ABCC4 / Fold change vs veh, ABCC4 / RFU, LOC101060439 /// RAP1B / Fold change vs veh, LOC101060439 /// RAP1B / RFU, RFX7 / Fold change vs veh, RFX7 / RFU, GTPBP10 / Fold change vs veh, GTPBP10 / RFU, CNEP1R1 / Fold change vs veh, CNEP1R1 / RFU, BIVM-ERCC5 /// ERCC5 / Fold change vs veh, BIVM-ERCC5 /// ERCC5 / RFU, ILF3 / Fold change vs veh, ILF3 / RFU 11762660_at / Fold change /veh 11762660_at / RFU VCAN (11757783_s_at) / Fold change /veh VCAN (11757783_s_at) / RFU DDX43 (11728927_at) / Fold change /veh DDX43 (11728927_at) / RFU KRT8 (11758188_x_at) / Fold change /veh KRT8 (11758188_x_at) / RFU NKD1 (11759106_at) / Fold change /veh NKD1 (11759106_at) / RFU SRD5A1 (11742802_a_at) / Fold change /veh SRD5A1 (11742802_a_at) / RFU TPSAB1 /// TPSB2 (11721975_s_at) / Fold change /veh TPSAB1 /// TPSB2 (11721975_s_at) / RFU GSTM3 (11746129_a_at) / Fold change /veh GSTM3 (11746129_a_at) / RFU IL23R (11737362_x_at) / Fold change /veh IL23R (11737362_x_at) / RFU TMEM51 (11727254_a_at) / Fold change /veh TMEM51 (11727254_a_at) / RFU PIWIL2 (11732686_x_at) / Fold change /veh PIWIL2 (11732686_x_at) / RFU ORM1 (11744905_x_at) / Fold change /veh ORM1 (11744905_x_at) / RFU CCDC152 (11743942_at) / Fold change /veh CCDC152 (11743942_at) / RFU ECM1 (11717891_a_at) / Fold change /veh ECM1 (11717891_a_at) / RFU IL23R (11748794_a_at) / Fold change /veh IL23R (11748794_a_at) / RFU TNFAIP8L3 (11732012_x_at) / Fold change /veh TNFAIP8L3 (11732012_x_at) / RFU MBOAT4 (11741988_at) / Fold change /veh MBOAT4 (11741988_at) / RFU 11764193_at / Fold change /veh 11764193_at / RFU TMEM53 (11763286_at) / Fold change /veh TMEM53 (11763286_at) / RFU MAGEB2 (11727129_at) / Fold change /veh MAGEB2 (11727129_at) / RFU TMEM200A (11744735_a_at) / Fold change /veh TMEM200A (11744735_a_at) / RFU CCDC152 (11751479_a_at) / Fold change /veh CCDC152 (11751479_a_at) / RFU FAM211A (11726209_a_at) / Fold change /veh FAM211A (11726209_a_at) / RFU RGS16 (11746705_a_at) / Fold change /veh RGS16 (11746705_a_at) / RFU VCAN (11755009_s_at) / Fold change /veh VCAN (11755009_s_at) / RFU RHOB (11743442_s_at) / Fold change /veh RHOB (11743442_s_at) / RFU RGS16 (11720943_a_at) / Fold change /veh RGS16 (11720943_a_at) / RFU RGS16 (11720944_at) / Fold change /veh RGS16 (11720944_at) / RFU, VPS4B / Fold change vs veh, VPS4B / RFU, CREB1 / Fold change vs veh, CREB1 / RFU, DNAJC13 / Fold change vs veh, DNAJC13 / RFU, GNAQ / Fold change vs veh, GNAQ / RFU, CDK5R1 / Fold change vs veh, CDK5R1 / RFU, ZRANB3 / Fold change vs veh, ZRANB3 / RFU, CUL4A / Fold change vs veh, CUL4A / RFU, CCNY / Fold change vs veh, CCNY / RFU, UFL1 / Fold change vs veh, UFL1 / RFU, COG3 / Fold change vs veh, COG3 / RFU, DIAPH2 / Fold change vs veh, DIAPH2 / RFU, SKA2 / Fold change vs veh, SKA2 / RFU, AFF3 / Fold change vs veh, AFF3 / RFU, LMF1 / Fold change vs veh, LMF1 / RFU, IPO11 / Fold change vs veh, IPO11 / RFU, DFFB / Fold change vs veh, DFFB / RFU, FOXP1 / Fold change vs veh, FOXP1 / RFU, CARD8 / Fold change vs veh, CARD8 / RFU, STRN3 / Fold change vs veh, STRN3 / RFU, ADK / Fold change vs veh, ADK / RFU, RASSF2 / Fold change vs veh, RASSF2 / RFU, WIPF1 / Fold change vs veh, WIPF1 / RFU, LARP1B / Fold change vs veh, LARP1B / RFU, RASA1 / Fold change vs veh, RASA1 / RFU, RB1 / Fold change vs veh, RB1 / RFU, PPFIA1 / Fold change vs veh, PPFIA1 / RFU, MAT2A / Fold change vs veh, MAT2A / RFU, CCT5 / Fold change vs veh, CCT5 / RFU, WDR92 / Fold change vs veh, WDR92 / RFU, CUX1 / Fold change vs veh, CUX1 / RFU, TTC7A / Fold change vs veh, TTC7A / RFU, TMEM135 / Fold change vs veh, TMEM135 / RFU, DEPTOR / Fold change vs veh, DEPTOR / RFU, CPM / Fold change vs veh, CPM / RFU, DNAJB6 / Fold change vs veh, DNAJB6 / RFU, CACNA2D3 / Fold change vs veh, CACNA2D3 / RFU, DTX4 / Fold change vs veh, DTX4 / RFU, TFCP2 / Fold change vs veh, TFCP2 / RFU, GMCL1 /// GMCL1P1 / Fold change vs veh, GMCL1 /// GMCL1P1 / RFU, AEBP2 / Fold change vs veh, AEBP2 / RFU, SNHG1 /// SNORD22 /// SNORD25 /// SNORD26 /// SNORD27 /// SNORD28 /// SNORD29 /// SNORD31 / Fold change vs veh, SNHG1 /// SNORD22 /// SNORD25 /// SNORD26 /// SNORD27 /// SNORD28 /// SNORD29 /// SNORD31 / Fold change (Aza/veh), C12orf56 (ProbeSet 11735607_a_at) / Fold change (ACY-1035/veh), C12orf56 (ProbeSet 11735607_a_at) / Fold change (Aza/veh), FGFR1OP (ProbeSet 11751329_s_at) / Fold change (ACY-1035/veh), FGFR1OP (ProbeSet 11751329_s_at) / Fold change (Aza/veh), VPS36 (ProbeSet 11739960_a_at) / Fold change (ACY-1035/veh), VPS36 (ProbeSet 11739960_a_at) / RFU SYPL1 (11715823_x_at) / Fold change /veh SYPL1 (11715823_x_at) / RFU IGFBP7 (11715501_s_at) / Fold change /veh IGFBP7 (11715501_s_at) / RFU REEP3 (11722064_at) / Fold change /veh REEP3 (11722064_at) / RFU IGLL1 (11728026_x_at) / Fold change /veh IGLL1 (11728026_x_at): dose or concentration left out as unconfirmed. As to conditions: MV-4-11 cells, 48 hours.

`Nc1ncn([C@@H]2O[C@H](CO)[C@@H](O)[C@H]2O)c(=O)n1` [azacitidine]: the “RFU FAM26E (11764081_at)” value stood at 5.32 RFU.
